Drawing on US7927581B2, “Peptide-based multimeric targeted contrast agents” (Factor 1A, LLC, priority 2001, dated 2011), this text covers Kd and half-life for nine compounds.

One series addresses fibrin DD(E) fragment (Homo sapiens, UniProt P02671+P02675+P02679). The series can be described thus: Fibrin DD(E) fragment affinity of optical contrast agents. The format is binding. The conditions noted are these: for Kd: fluorescein-labeled peptides, read-out: Kd (μM) Vs. DD(E). The protocol:
NovaSyn TGR resin (0.20 mmol/g, 100 mg, 20 μmol) was washed with NMP/ether/NMP. The peptide was assembled by the standard solid phase method using the PyBOP/HOBt/DIEA activation. After the coupling of the final amino acid residue, the resin bound peptide was treated with a solution of piperidine in DMF (20% by volume, 2.0 mL) for 10 minutes to remove the Fmoc protecting group. The resin was washed thoroughly with NMP/ether/NMP, and was treated with a solution of fluorascein-5-isothiocyanate (23.4 mg, 60 μmol) and duisopropylethylamine (11.6 mg, 15.7 μL, 90 μmol) in DMF (1.5 mL) for 12 hours. The resin was washed thoroughly (NMP/ether/NMP), and treated with a solution of Tl (TFA)3 (18.7 mg, 34.5 μmol) in DMF (1.5 mL) at 4° C. for three hours. The resin was washed after this treatment, and treated with a cocktail of TFA/TIS/water (95/2.5/2.5, 2.0 mL) for two hours. The crude peptide was precipitated by adding ether to the cleavage cocktail, and purified by preparative HPLC using a Vydac C-18 column. Structures A-N were formed in this manner and their fibrin DD(E) fragment affinities were determined (Table 5).
N-terminal labeling of the peptides with optical probes can modulate the binding affinity of the optical contrast agents. For example, when comparing fluorescein, 4-methoxycoumarin and tetramethylrhodamine derivatives of the peptide (QWECPYGLCWIQ (SEQ ID NO:27); Kd=3 μM) the following Kd's were observed (Table 6): […]

A short description of series [1]: Stability in rat liver homogenate. The format is in vitro ADME. The conditions noted are these: 37° C., LC-MS; for half-life: tissue homogenate. The protocol:
Stability was assayed using rat liver homogenate, which contains both intra- and extracellular enzymes and represents a particularly harsh chemical environment for peptide bonds. Freshly prepared rat liver homogenate (630 μL) was placed in a glass test tube and incubated at 37° C. in a water bath for 4 minutes. To the rat liver homogenate at 37° C. was added 70 μL of a 1 mM solution of test compound. At time points 0, 5, 15, 30, and 60 minutes, a 100 μL aliquot of the reaction mixture was removed and mixed with 100 μL of methanol in a microfuge tube to quench the reaction. The quenched reaction mixture was centrifuged for 3 minutes at 10,000 rpm to pellet the precipitated protein. The supernatant was analyzed by LC-MS to quantitate the amount of test compound remaining by comparing the area of the single ion MS peak to that of a series of standards. Half life (T1/2) was determined by plotting log percent signal remaining vs. time. The data were fit using an exponential curve fit, wherein T1/2=In2/slope.

pKd: −log10 of the molar value. Where two headings read alike, the source gives them in different places. Positions of bridges follow the written chain, without caps; N, C: chain ends. Non-standard residues stand in square brackets, D forms with d. Residues, ends and D or L forms follow the SMILES beside them. *: point of attachment. FITC = O=C1OC2(c3ccc(O)cc3Oc3cc(O)ccc32)c2ccc(NC(=S)*)cc21; Tyr(3-I) = N[C@@H](Cc1ccc(O)c(I)c1)C(=O)O; Hyp = O=C(O)[C@@H]1C[C@@H](O)CN1; Ahx = NCCCCCC(=O)O A value given as a limit tells only on which side of the number the result lay.

Chain of fibrin DD(E) fragment (P02671 124-216): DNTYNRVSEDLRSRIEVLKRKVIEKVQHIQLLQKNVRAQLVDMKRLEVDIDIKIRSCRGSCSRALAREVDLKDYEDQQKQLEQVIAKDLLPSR
Chain of fibrin DD(E) fragment (P02675 164-491): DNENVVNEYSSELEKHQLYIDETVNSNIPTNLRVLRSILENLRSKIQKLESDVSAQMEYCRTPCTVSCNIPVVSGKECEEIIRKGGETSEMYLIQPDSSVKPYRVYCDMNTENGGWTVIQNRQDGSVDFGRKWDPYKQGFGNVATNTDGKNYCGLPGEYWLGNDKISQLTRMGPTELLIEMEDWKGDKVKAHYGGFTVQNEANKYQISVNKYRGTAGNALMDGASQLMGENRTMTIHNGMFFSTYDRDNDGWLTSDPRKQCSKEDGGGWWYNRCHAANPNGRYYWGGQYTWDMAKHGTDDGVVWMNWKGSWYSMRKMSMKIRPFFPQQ
Chain of fibrin DD(E) fragment (P02679 114-432): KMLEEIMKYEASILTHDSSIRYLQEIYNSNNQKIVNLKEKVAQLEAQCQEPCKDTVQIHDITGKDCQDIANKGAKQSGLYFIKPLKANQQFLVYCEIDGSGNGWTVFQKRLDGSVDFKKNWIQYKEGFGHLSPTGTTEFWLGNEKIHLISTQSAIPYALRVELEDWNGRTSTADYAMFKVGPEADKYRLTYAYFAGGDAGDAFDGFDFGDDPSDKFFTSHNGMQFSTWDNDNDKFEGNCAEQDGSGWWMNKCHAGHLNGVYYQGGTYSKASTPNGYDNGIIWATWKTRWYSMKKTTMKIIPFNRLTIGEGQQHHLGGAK
Chain of fibrin DD(E) fragment (P02671 36-97): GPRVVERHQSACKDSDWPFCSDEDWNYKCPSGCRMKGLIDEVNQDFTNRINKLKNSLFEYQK
Chain of fibrin DD(E) fragment (P02675 45-152): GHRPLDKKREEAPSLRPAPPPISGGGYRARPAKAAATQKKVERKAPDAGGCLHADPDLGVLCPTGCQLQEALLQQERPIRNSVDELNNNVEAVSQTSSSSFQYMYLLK
Chain of fibrin DD(E) fragment (P02679 27-88): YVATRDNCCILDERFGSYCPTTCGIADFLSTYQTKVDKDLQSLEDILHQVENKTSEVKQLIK

As for `CC[C@H](C)[C@H](NC(=O)[C@H](Cc1c[nH]cn1)NC(=O)[C@@H]1CSSC[C@H](NC(=O)[C@H](Cc2c[nH]cn2)NC(=O)[C@H](Cc2ccccc2)NC(=O)CNC(=O)CCCCCNC(=S)Nc2ccc3c(c2)C(=O)OC32c3ccc(O)cc3Oc3cc(O)ccc32)C(=O)N2C[C@H](O)C[C@H]2C(=O)N[C@@H](Cc2ccc(O)c(I)c2)C(=O)N[C@@H](CC(=O)O)C(=O)N[C@@H](CC(C)C)C(=O)N1)C(N)=O` [C] ({FITC-Ahx}-GFHC[Hyp][Tyr(3-I)]DLCHI-NH2; disulfide 4-9), the equilibrium dissociation constant (Kd) (commonly a measure of binding affinity in units of concentration) at fibrin DD(E) fragment came to 0.097 µM. `CC(C)C[C@H](NC(=O)[C@@H]1CSSC[C@H](NC(=O)[C@@H]2CCCN2C(=O)[C@H](CC(C)C)NC(=O)C(CNC(=O)C(CN(CCN(CC(=O)O)CC(=O)O)CC(=O)O)N(CC(=O)O)CC(=O)O)NC(=O)C(CN(CCN(CC(=O)O)CC(=O)O)CC(=O)O)N(CC(=O)O)CC(=O)O)C(=O)N[C@@H](CC(=O)O)C(=O)N[C@@H](Cc2ccc(O)cc2)C(=O)N[C@@H](Cc2ccc(O)cc2)C(=O)NCC(=O)N[C@@H]([C@@H](C)O)C(=O)N1)C(=O)N[C@@H](CC(=O)O)C(=O)NCc1ccc(CNC(=O)C(CNC(=O)C(CN(CCN(CC(=O)O)CC(=O)O)CC(=O)O)N(CC(=O)O)CC(=O)O)NC(=O)C(CN(CCN(CC(=O)O)CC(=O)O)CC(=O)O)N(CC(=O)O)CC(=O)O)cc1` (stereo partly shown) [Compound 5]: in series [1], the half-life (as a rule, how long it takes for the measured level to halve) came out at 65 min. With `CC[C@H](C)[C@H](NC(=O)[C@H](Cc1c[nH]cn1)NC(=O)[C@@H]1CSSC[C@H](NC(=O)[C@H](Cc2c[nH]cn2)NC(=O)[C@H](Cc2ccccc2)NC(=O)[C@H](Cc2c[nH]c3ccccc23)NC(=S)Nc2ccc3c(c2)C(=O)OC32c3ccc(O)cc3Oc3cc(O)ccc32)C(=O)N2CCC[C@H]2C(=O)N[C@@H](Cc2ccc(O)cc2)C(=O)N[C@@H](CC(=O)O)C(=O)N[C@@H](CC(C)C)C(=O)N1)C(=O)N[C@@H](CC(C)C)C(N)=O` [Compound K] (HELM PEPTIDE1{[O=C1OC2(c3ccc(O)cc3Oc3cc(O)ccc32)c2ccc(NC(=S)[*:2])cc21].W.F.H.C.P.Y.D.L.C.H.I.L.[am]}$PEPTIDE1,PEPTIDE1,5:R3-10:R3$$$V2.0), the Kd on fibrin DD(E) fragment was found to be 0.06 µM. Same read-out and setting: to `CC[C@H](C)[C@H](NC(=O)[C@H](Cc1c[nH]cn1)NC(=O)[C@@H]1CSSC[C@H](NC(=O)[C@H](Cc2c[nH]cn2)NC(=O)[C@H](Cc2ccccc2)NC(=O)[C@H](Cc2c[nH]c3ccccc23)NC(=O)CCCCCNC(=S)Nc2ccc3c(c2)C(=O)OC32c3ccc(O)cc3Oc3cc(O)ccc32)C(=O)N2C[C@H](O)C[C@H]2C(=O)N[C@@H](Cc2ccc(O)c(I)c2)C(=O)N[C@@H](CC(=O)O)C(=O)N[C@@H](CC(C)C)C(=O)N1)C(N)=O` [D] ({FITC-Ahx}-WFHC[Hyp][Tyr(3-I)]DLCHI-NH2; disulfide 4-9) belongs 0.061 µM; to `CC[C@H](C)[C@H](NC(=O)[C@H](Cc1c[nH]cn1)NC(=O)[C@@H]1CSSC[C@H](NC(=O)[C@H](Cc2c[nH]cn2)NC(=O)[C@H](Cc2ccccc2)NC(=O)CNC(=O)CNC(=O)CCCCCNC(=S)Nc2ccc3c(c2)C(=O)OC32c3ccc(O)cc3Oc3cc(O)ccc32)C(=O)N2C[C@H](O)C[C@H]2C(=O)N[C@@H](Cc2ccc(O)c(I)c2)C(=O)N[C@@H](CC(=O)O)C(=O)N[C@@H](CC(C)C)C(=O)N1)C(N)=O` [E] ({FITC-Ahx}-GGFHC[Hyp][Tyr(3-I)]DLCHI-NH2; disulfide 5-10), 0.09 µM. Regarding `CC[C@H](C)[C@H](NC(=O)[C@H](Cc1c[nH]c2ccccc12)NC(=O)[C@@H]1CSSC[C@H](NC(=O)[C@H](CCC(=O)O)NC(=O)[C@H](Cc2c[nH]c3ccccc23)NC(=O)[C@H](CCC(N)=O)NC(=S)Nc2ccc3c(c2)C(=O)OC32c3ccc(O)cc3Oc3cc(O)ccc32)C(=O)N2CCC[C@H]2C(=O)N[C@@H](Cc2ccc(O)cc2)C(=O)NCC(=O)N[C@@H](CC(C)C)C(=O)N1)C(=O)N[C@@H](CCC(N)=O)C(N)=O` [J] (HELM PEPTIDE1{[O=C1OC2(c3ccc(O)cc3Oc3cc(O)ccc32)c2ccc(NC(=S)[*:2])cc21].Q.W.E.C.P.Y.G.L.C.W.I.Q.[am]}$PEPTIDE1,PEPTIDE1,5:R3-10:R3$$$V2.0), the Kd at fibrin DD(E) fragment turned out to be 0.055 µM. Further, the negative-log Kd (pKd) (in general, the negative decadic logarithm of the Kd, by convention in mol/L) on fibrin DD(E) fragment (fluorophore derivatives of QWECPYGLCWIQ, no unit in Table 6, read-out: Kd) was 7.22.

`CC(C)C[C@H](NC(=O)[C@@H]1CSSC[C@H](NC(=O)[C@@H]2CCCN2C(=O)[C@@H](N)CC(C)C)C(=O)N[C@@H](CC(=O)O)C(=O)N[C@@H](Cc2ccc(O)cc2)C(=O)N[C@@H](Cc2ccc(O)cc2)C(=O)NCC(=O)N[C@@H](C(C)O)C(=O)N1)C(=O)N[C@@H](CC(=O)O)C(N)=O` (stereo partly shown) [Structure 1] came in with a half-life at 100 µM in series [1] of less than 2 min. `C=NOCC(=O)NCCN(CCN(CCNC(=O)CO/N=C/C(=O)N[C@@H](CC(C)C)C(=O)N1CCC[C@H]1C(=O)N[C@H]1CSSC[C@@H](C(=O)N[C@@H](Cc2ccc(-c3ccccc3)cc2)C(=O)N[C@@H](CC(=O)O)C(N)=O)NC(=O)[C@H]([C@@H](C)O)NC(=O)CNC(=O)[C@H](Cc2ccc(O)cc2)NC(=O)[C@H](Cc2ccc(O)cc2)NC(=O)[C@H](CC(=O)O)NC1=O)C(=O)C(CNC(=O)CN(CCN(CCN(CC(=O)O)CC(=O)O)CC(=O)O)CC(=O)O)NC(=O)CN(CCN(CCN(CC(=O)O)CC(=O)O)CC(=O)O)CC(=O)O)C(=O)C(CNC(=O)CN(CCN(CCN(CC(=O)O)CC(=O)O)CC(=O)O)CC(=O)O)NC(=O)CN(CCN(CCN(CC(=O)O)CC(=O)O)CC(=O)O)CC(=O)O` (stereo partly shown) [Structure 2] showed a half-life in series [1] of 10 min. The same measure, in the same setting: to `CC(C)C[C@H](NC(=O)[C@@H]1CSSC[C@H](NC(=O)[C@@H]2CCCN2C(=O)[C@H](CC(C)C)NC(=O)c2ccc(-c3ccccc3)cc2)C(=O)N[C@@H](CC(=O)O)C(=O)N[C@@H](Cc2ccc(O)cc2)C(=O)N[C@@H](Cc2ccc(O)cc2)C(=O)NCC(=O)N[C@@H]([C@@H](C)O)C(=O)N1)C(=O)N[C@@H](CC(=O)O)C(=O)NCCN(CCN(CCN)C(=O)C(CNC(=O)CN(CCN(CCN(CC(=O)O)CC(=O)O)CC(=O)O)CC(=O)O)NC(=O)CN(CCN(CCN(CC(=O)O)CC(=O)O)CC(=O)O)CC(=O)O)C(=O)C(CNC(=O)CN(CCN(CCN(CC(=O)O)CC(=O)O)CC(=O)O)CC(=O)O)NC(=O)CN(CCN(CCN(CC(=O)O)CC(=O)O)CC(=O)O)CC(=O)O` (stereo partly shown) [Structure 3] belongs 9 min.
